Here are results for seven compounds from patent US20170371042A1, “CONTRAST AGENT FOR OPTICAL IMAGING, USE THEREOF AND APPARATUS USING THE SAME” (KYUNGPOOK NATIONAL UNIVERSITY INDUSTRY- ACADEMIC …, priority 2009, published 2017).

The nature of data set [1]: Luminescence imaging using [^18F]FDG. The format is in vivo. Conditions: BALB/c mouse bearing luciferase-transfected 4T1 tumour cells, 1 hour after injecting 409 μCi via tail vein, no luciferin. On the procedure: A BALB/c mouse with a luciferase-transfected 4T1 tumor was injected with […] of [^18F]FDG via the tail vein. One hour after the injection, the mouse was scanned for 3 minutes in the prone position using IVIS 200. […] The brain (red arrow) and the brown fat (white arrow) are clearly visualized.

For data set [2] the following is noted: cited from earlier work; for Decay mode EC (%): electron capture; for Ece mean: conversion electron.
The conditions of data set [3]: normal mouse (C3H/HeN), 500 μCi intraperitoneally, 40 minutes post-injection.
Method: 500 mCi of ^124I was injected intraperitoneally into a normal mouse (C3H/HeN, Orient Bio Inc., Korea). 40 minutes after the injection, a luminescence image was obtained by scanning the mouse for 1 minute in the lying position.

On to `OC[C@H]1OC(O)[C@H]([18F])[C@@H](O)[C@@H]1O` (stereo partly shown) [^18F, [^18F]FDG], for which, in data set [1], the “luminescence signal in mouse image” value is “intense signal was detected in the brain and brown fat area on the shoulder”. In data set [2], the half-life entry is “(110 min)” and the “Decay mode EC (%)” value was “(3) %”.
`[64Cu+2].[Cl-].[Cl-]` [^64Cu, [^64Cu]CuCl2]: in data set [2], the half-life entry was “(12.7 h)”.
Take `[68Ga+3].[Cl-].[Cl-].[Cl-]` [^68Ga, [^68Ga]GaCl3]: in data set [2], the half-life result is recorded as “(68 min)” and the “Decay mode EC (%)” value is “(11) %”.
As to `[Cl][111In]([Cl])[Cl]` [^111In, [^111In]InCl3], in data set [2], the half-life result was “(2.8 d)”, the Ece mean is listed as 176 keV and the “Decay mode EC (%)” value is given as “(100) %”.
Take `[124I-].[Na+]` [^124I, [^124I]NaI]: the “uptake seen in luminescence image” value in data set [3] was “high uptake in the thyroid and bladder region”. In data set [2], the half-life entry was “(4.2 d)” and the “Decay mode EC (%)” value is listed as “(77) %”.
In the case of `[131I-].[Na+]` [^131I, [^131I]NaI], the half-life entry in data set [2] is “(8.0 d)”.
On to [^99mTc]TcO4^−, for which, in data set [2], the half-life entry was “(6.0 h)” and the Ece mean was 14 keV. For the same compound, in data set [2] (isomeric transition), the “Decay mode IT (%)” value is reported as “(100) %”.
